The assay addresses Prothrombin (Homo sapiens, UniProt P00734). Nature of the assay: Inhibition constant against human thrombin.

Regarding `CC1CNc2c(cccc2S(=O)(=O)N[C@@H](CCCNC(N)N)C(=O)N2CC[C@H](C)C[C@@H]2C(=O)O)C1` (stereo in doubt; 1g), the Ki – broadly, a measure of affinity in units of concentration, obtained from inhibition or displacement – worked out at 240 nM.
Compound `CC1CNc2c(cccc2S(=O)(=O)N[C@@H](CCCNC(N)N)C(=O)N2CC[C@@H](C)C[C@@H]2C(=O)O)C1` (stereo partly specified) had a Ki of 19 nM.
In the case of `CC1CNc2c(cccc2S(=O)(=O)N[C@@H](CCCNC(N)N)C(=O)N2CCCCC2)C1` (stereo partly specified) it was 130 nM.
In the case of `CC1CNc2c(cccc2S(=O)(=O)N[C@@H](CCCNC(N)N)C(=O)N2CC[C@H](C)C[C@@H]2C(=O)O)C1` (stereo in doubt; 1b), affinity was put at a Ki of 1900 nM.
`CC1CCN(C(=O)[C@H](CCCNC(N)N)NS(=O)(=O)c2cccc3c2NCC(C)C3)CC1` (stereo partly specified) gave a Ki of 30 nM.
`CC1CNc2c(cccc2S(=O)(=O)N[C@@H](CCCNC(N)N)C(=O)N2CC[C@H](C)C[C@@H]2C(=O)O)C1` (stereo in doubt; 1c) registered a Ki of 280000 nM.

The values are drawn from ChEMBL document CHEMBL1130031, “Binding affinities for sulfonamide inhibitors with human thrombin using Monte Carlo simulations with a linear response method” (J Med Chem, 1997).
